In PMC11078216, “Discovery of potent and selective activity-based probes (ABPs) for the deubiquitinating enzyme USP30” (RSC Chemical Biology, 2024):

Columns and labels:
[1] = molecular target: T1, RTN3 (Homo sapiens, UniProt O95197); assay: ABPP chemical proteomics (LC-MS/MS) in HEK293T cells; type: cell-based
T1 construct: endogenous in cells; host or cells: HEK293T
T1 sequence (O95197 1-1032): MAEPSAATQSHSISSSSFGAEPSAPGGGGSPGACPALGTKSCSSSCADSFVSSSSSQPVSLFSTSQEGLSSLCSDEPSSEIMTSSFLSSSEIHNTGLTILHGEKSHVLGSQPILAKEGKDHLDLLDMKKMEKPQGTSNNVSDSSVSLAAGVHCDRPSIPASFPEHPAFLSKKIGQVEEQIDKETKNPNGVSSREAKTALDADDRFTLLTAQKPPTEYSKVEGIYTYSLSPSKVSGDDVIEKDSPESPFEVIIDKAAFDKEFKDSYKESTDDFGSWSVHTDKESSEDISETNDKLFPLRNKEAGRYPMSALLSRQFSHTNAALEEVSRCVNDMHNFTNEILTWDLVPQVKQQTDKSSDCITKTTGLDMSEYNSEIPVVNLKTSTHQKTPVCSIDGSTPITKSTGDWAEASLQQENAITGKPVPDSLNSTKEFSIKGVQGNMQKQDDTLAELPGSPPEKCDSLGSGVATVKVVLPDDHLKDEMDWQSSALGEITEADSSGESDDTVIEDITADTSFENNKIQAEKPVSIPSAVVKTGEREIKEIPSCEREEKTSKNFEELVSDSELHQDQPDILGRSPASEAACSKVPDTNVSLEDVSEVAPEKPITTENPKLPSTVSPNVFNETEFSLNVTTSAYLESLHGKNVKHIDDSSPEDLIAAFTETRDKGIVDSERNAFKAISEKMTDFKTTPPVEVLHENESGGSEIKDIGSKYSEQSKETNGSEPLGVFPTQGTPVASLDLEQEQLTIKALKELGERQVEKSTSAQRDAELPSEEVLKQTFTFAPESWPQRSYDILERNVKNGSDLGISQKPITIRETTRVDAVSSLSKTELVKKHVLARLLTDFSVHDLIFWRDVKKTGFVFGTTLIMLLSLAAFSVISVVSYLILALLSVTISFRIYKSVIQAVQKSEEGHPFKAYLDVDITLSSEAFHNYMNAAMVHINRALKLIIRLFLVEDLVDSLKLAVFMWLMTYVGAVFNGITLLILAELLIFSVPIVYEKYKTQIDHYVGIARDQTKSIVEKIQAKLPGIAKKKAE
Procedure, shortened: (§1)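 Read-out is quantitative LC-MS/MS of probe-labelled proteins from HEK293T cells treated with […]. Labelling used ABP 2 or ABP 4 in live cells (1 h, 37 °C), followed by lysate click chemistry and streptavidin-type enrichment.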

[2] = molecular target: T2, DESI2 (Homo sapiens, UniProt Q9BSY9); assay: as above; type: cell-based
T2 construct: endogenous in cells; host or cells: HEK293T
Procedure, shortened: as §1

[3] = compound 3 out-competition with IMP-2586 labelling, HEK293T (Table S5, Fig.5d)
[4] = IMP-2587 labelling vs DMSO, 30 nM, 10 min, HEK293T (Table S2, Fig.5a)
[5] = IMP-2586 labelling vs DMSO, 30 nM, 10 min, HEK293T (Table S4, Fig.5c)
[6] = compound 1 out-competition with IMP-2587 labelling, HEK293T (Table S3, Fig.5b)

T2 sequence (Q9BSY9 whole entry): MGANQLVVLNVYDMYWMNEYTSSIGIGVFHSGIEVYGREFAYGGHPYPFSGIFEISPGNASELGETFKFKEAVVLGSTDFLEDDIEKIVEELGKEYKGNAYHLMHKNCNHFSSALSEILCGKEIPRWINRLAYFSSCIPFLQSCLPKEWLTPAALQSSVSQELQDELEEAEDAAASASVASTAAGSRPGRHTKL

N#CN1CC[C@@H](NC(=O)c2cc(-c3ccccc3Oc3ccccc3)n[nH]2)C1 [compound 3, reference compound] was tested, and the “Difference (log2 fold change of enrichment)” value [1, 3] was -0.42 and the “Difference (log2 fold change of enrichment)” value [2, 3] was -3.13.

In the case of C#Cc1cccc(-c2cc(NC(=O)CC3CCN(C#N)C3)on2)c1 (centres unmarked) [IMP-2587], the “Difference (log2 fold change of enrichment)” value [1, 4] is reported as 1.07 and the “Difference (log2 fold change of enrichment)” value [2, 4] is reported as 2.02.

For N#CN1CC[C@@H](NC(=O)c2cc(-c3ccccc3Oc3ccc(N=[N+]=[N-])cc3)n[nH]2)C1 [IMP-2586], the “Difference (log2 fold change of enrichment)” value [1, 5] was 0.91 and the “Difference (log2 fold change of enrichment)” value [2, 5] was 3.40.

N#CN1CC[C@H](CC(=O)Nc2cc(-c3cccc(Cl)c3)no2)C1 [compound 1, reference compound] was tested, and the “Difference (log2 fold change of enrichment)” value [1, 6] was -0.64 and the “Difference (log2 fold change of enrichment)” value [2, 6] was -1.75.
